Test results as given in a melting point compilation (Tetko et al.; mined from patent text by program, amines drawn as free bases though some values may be those of a salt).

Row | Structure (SMILES) | melting point
1 | COc1cccc(OC)c1-c1cc(C(=O)N[C@H](C(=O)O)C2CCCCC2)nn1-c1ccc(C(N)=O)c2ccccc12 | 186 °C
2 | COC(=O)CCCCCCCCOC1OC(CO)C(O)C(O)C1O (stereo not given) | 104 to 105 °C
3 | COc1ccccc1NC(=O)Nc1nc(Nc2ccccc2-c2ccccc2)nc(N2CCC(C(=O)O)CC2)n1 | 130 to 135 °C
4 | CC(C)(NC(=O)CCn1ccnc1)c1ccc(Cl)cc1 | 154 to 155 °C
5 | CC(=O)Nc1c(C#N)cnn1-c1ccc(Cl)c(Cl)c1Cl | 222 to 224 °C
6 | COc1cc(OC)c(/C=C2/C(=O)NC(=O)/C2=C/c2ccccc2)c(OC)c1 | 246 to 248 °C
7 | O=S(=O)(c1ccc(Cl)c(CBr)c1Cl)N1CC[C@H](O)C1 | 120 °C
8 | CN1CCN(CC(=O)O)CC1 | 158 to 160 °C
9 | CCOC(=O)CC=NCC(O)COc1ccccc1C#N (stereo not given) | 120 °C
10 | CN(CC(O)c1ccc(C=O)cc1)C(=O)OC(C)(C)C (stereo not given) | 37 to 39 °C
11 | CC(C)COC(=O)N[C@@H](CC(C)C)C(=O)N[C@@H](Cc1ccccc1)C(=O)CSCc1ccco1 | 89 to 90 °C
12 | COc1cc2cc3c(Nc4ccc(Sc5nccn5C)c(Cl)c4)c(C#N)cnc3cc2cc1OCCN1CCOCC1 | > 300 °C
13 | Cn1ncc(/C=C/C(=O)Nc2ccc3c(c2)oc(=O)n3C)c1-c1ccc(F)cc1 | 265 to 266 °C
14 | C[C@H](O)[C@H](Cc1ccccc1)C(=O)NN | 167 °C
15 | CCNC(=O)CN(c1ccccc1)[C@@H]1c2cc(C#N)ccc2OC(C)(C)[C@@H]1O | 202 to 204 °C
16 | CCOC(=O)c1ccc(CNC(=O)c2csc3nc(C(=O)OCC)[nH]c(=O)c23)cc1 | 227 to 228 °C
17 | O=[N+]([O-])c1cccnc1Nc1cc(F)ccc1F | 150 to 152 °C
18 | COc1ccc(CCN2CCC(C(O)(c3cc4ccccc4s3)c3cc4ccccc4s3)CC2)cc1 | 168 to 179 °C
19 | CS(=O)(=O)OCC1CSC2=C(O1)c1ccccc1C(=O)C2=O (stereo not given) | 230 to 232 °C
20 | COc1ccc(C2Cc3cc(C(F)(F)F)ccc3NC(=O)C2CO)cc1 (stereo not given) | 190 °C
21 | CCC(C)(O)C#Cc1ccc(C(CC2CCCC2)C(=O)O)cc1 (stereo not given) | 91 to 94 °C

Row | Structure (SMILES) | melting point
22 | CC(Br)c1nc2ccccc2c(=O)n1-c1ccc(F)cc1 (stereo not given) | 180 °C
23 | CC(CC(C)C1CCC2C3C(=O)CC4CC(=O)CCC4(C)C3CCC12C)C(=O)O (stereo not given) | 119 °C
24 | Cc1ccc(S(=O)(=O)NNC2=CC(=O)CC(c3ccccc3Cl)C2)cc1 (stereo not given) | 235 to 236 °C
25 | CC1=NN(C)C(=O)C1C(=O)Nc1cccc2c1CCC2(C)C (stereo not given) | 141 °C
26 | COc1cc(OC)cc(-c2ncn(-c3cc(OC)c(OC)c(OC)c3)c2-c2ccc(N(C)C)cc2)c1 | 151 to 154 °C
27 | CC1(C)C(=O)C(c2ccccc2)=C1c1ccc(S(N)(=O)=O)cc1 | 142 to 144 °C
28 | CC(Cl)(Cl)C(NC(=O)c1cccc(F)c1)NC(=NC#N)Nc1ccc(Cl)nc1 (stereo not given) | 191 to 192 °C
29 | COc1ccc2c(C3CCN(CCCn4c(=O)[nH]c5ccccc54)CC3)noc2c1 | 176 to 178 °C
30 | COC(=O)c1ccc(C(=O)N2CCN(c3ncccc3NC(C)C)CC2)cc1 | 116 to 118 °C
31 | CC1(C)CC(OC(=O)NN)CC(C)(C)N1 | 93 to 94 °C
32 | CC(C)CC(=O)Nc1cc(-c2ccnc3c(C(=O)c4cccs4)cnn23)ccc1Cl | 172 to 175 °C
33 | COC(=O)c1c(C)[nH]c(-c2ncncc2Cl)c1C(=O)OC | 180 to 181 °C
34 | CNC(=O)N1CC(Oc2ccc(Cl)cc2Cl)C1 | 140 to 141 °C
35 | CCOc1nc(=O)n(C(=O)NCCCl)s1 | 82 °C
36 | Cc1cccc(C)c1NC(=O)Nc1sc2cc3c(cc2c1-c1ccccc1Cl)CCC3 | 236 to 237 °C
37 | CC(=O)C(=Cc1ccc(C(=O)O)cc1)C(C)=O | 195 to 199 °C
38 | CN(C)C(CN1CCN(c2ccc(F)cc2)CC1)CN1c2cccc3cccc(c23)S1(=O)=O (stereo not given) | 118 °C
39 | Cc1cc(C(O)c2ccccc2)sc1C (stereo not given) | 79 to 80 °C
40 | CCCc1c(OCC(=O)OCC)ccc(C(C)=O)c1O | 61 to 64 °C
41 | CC(C)(C)OC(=O)Nc1cc(OCC#N)c(I)cc1[N+](=O)[O-] | 125 °C
42 | CCCCCCN(CC(=O)O)CC(=O)O | 130 to 131 °C

Row | Structure (SMILES) | melting point
43 | COC(=O)c1cccc(NC(=O)c2ccc(OC)c(Nc3cccc(C(F)(F)F)c3)c2)c1 | 128 to 129 °C
44 | CC(O)/C=C/c1ccc(-c2ccccc2)cc1 (stereo not given) | 138 to 139 °C
45 | CC(=O)NC(C)COC1CCC(c2nc3ccc(OCC4CC4)cc3o2)CC1 (stereo not given) | 131 to 132 °C
46 | CN1C(=O)N(c2nnc(C(C)(C)C)s2)C(=O)C1O (stereo not given) | 163 to 164 °C
47 | CC(Cc1c[nH]c2ccccc12)NC1CCC(c2ccccc2)(N(C)C)CC1 (stereo not given) | 155 to 162 °C
48 | COc1ccc(C2CCN(C(=O)C(N)=O)CC2)cc1OC1CCCC1 | 66 to 66.5 °C
49 | COc1ccc(C2=C(CC(C)N)C(=O)NCCC2)cc1 (stereo not given) | 131 to 133 °C
50 | CCOC(=O)c1ccc2c(c1)c(C)c(C)n2C(C)=O | 98 to 101 °C
51 | COc1ccc(-c2c(C)ccn2-c2ccc(S(C)(=O)=O)cc2)cc1 | 131 to 132 °C
52 | CCC(C)(C)Nc1c(NCc2cccc(Cl)c2Cl)c(=O)c1=O | 222 to 223 °C
53 | CN1CCCN(C(=O)c2ccc3n2Cc2ccccc2N(C(=O)c2ccc(C4CCCCC4)cc2)C3)CC1 | 133 to 136 °C
54 | COC(=O)COc1ccc(CCCOS(C)(=O)=O)cc1 | 49 to 51 °C
55 | Cc1cccc(C)c1COc1cc(C(=O)O)cc2c1nc(C)n2C | 285 to 286 °C
56 | COc1cc(I)c(C(=O)Cl)cc1OC | 151 to 154 °C
57 | CCC=CCn1c(=O)sc2c(=O)n(C)c(N)nc21 | 184 to 187 °C
58 | CC(C(=O)O)c1ccc(Oc2ccc(F)cc2)c(Cl)c1 (stereo not given) | 68 to 70 °C
59 | COC(=O)c1ccc(CC2=CCc3ccc(NC(=O)CC4CCCC4)cc32)c(OC)c1 | 178 to 179 °C
60 | Cn1c(=O)n(Cc2cccs2)c(=O)c2cc(C(=O)NCc3ccc4c(c3)OCO4)ccc21 | 224 °C
61 | CN(C)Cc1ccc2c(NCc3ccc(NC(=O)c4ccc(F)cc4)cc3)nc(N(C)C)nc2c1 | 94 °C
62 | Cc1ccc(Sc2cncc3sc(C(=O)NCC(O)CO)cc23)cc1 (stereo not given) | 120 to 122 °C

Second part, the compound after the results:

Row | melting point | Structure (SMILES)
63 | 118 to 119 °C | Cc1ccc(CCCNCC(O)c2cc3ccccc3o2)cc1 (stereo not given)
64 | 84 to 85 °C | O=C1N(Cc2ccccn2)c2ccccc2C12COc1cc3c(cc12)CCO3 (stereo not given)
65 | 244 to 245 °C | O=C(O)c1cccc(-c2cccc(Oc3ccc(Cl)cc3Cl)n2)c1
66 | 123 to 125 °C | CCN(CC)c1ccc(C2(c3ccc(N(C)C)cc3N(C)C)OC(=O)c3cc(N(C)C)ccc32)cc1 (stereo not given)
67 | 275 °C | N#Cc1cc(NC(=O)c2cc3ccccc3s2)ccc1N1CCC(N2CCCCC2)CC1
68 | 88.2 to 89 °C | Cc1oc(-c2ccccc2)nc1CCOS(C)(=O)=O
69 | 105 to 107 °C | NC1CCc2ccccc2N(CC(=O)OCc2ccccc2)C1=O (stereo not given)
70 | 127 °C | CCCCN(CCCOc1ccc2ccccc2c1)c1ccc(OC)cc1
71 | 134 °C | CCOC(=O)C1(c2cccc(Cl)c2C)CCN(S(=O)(=O)c2ccc(C)cc2)CC1
72 | 90 to 92 °C | COC(=O)C1=C(C)NC(C)=C(C(=O)c2ccco2)C1c1ccccc1[N+](=O)[O-] (stereo not given)
73 | 177 to 180 °C | O=C1CCCN1Nc1ccncc1
74 | 45 °C | CCOC(=O)C(=Cc1cccc(OC)c1)C(=O)OCC
75 | 69 to 71 °C | CN(C)c1cccc(/C=C/c2c(F)cccc2F)c1
76 | 304 °C | CN1CCN(C2=N/C(=C\c3c[nH]c4ncc(-c5ccccc5)cc34)C(=O)N2)CC1
77 | 220 to 223 °C | Cc1c(CON2C(=O)c3ccccc3C2=O)ncn1C(c1ccccc1)(c1ccccc1)c1ccccc1
78 | 126 to 128 °C | Cc1c(C)c2c(c(C)c1N)CC(C)(CN1CCC(c3ccncc3)CC1)O2 (stereo not given)
79 | 226 to 229 °C | CNc1nnc(-c2cc3c(Oc4ccc(Cl)cc4)cncc3s2)s1
80 | 186 to 187 °C | O=C(CCCN1CCC(c2noc3cc(F)ccc23)CC1)c1cc2c(s1)C(=O)NCCC2
81 | 221 to 223 °C | CCOCc1nc2c(N)nc3ccccc3c2n1Cc1cc(-c2ccccc2)on1

Row | melting point | Structure (SMILES)
82 | 72 °C | N=c1sc2cc(OC(F)(F)F)ccc2n1CCSCCCC(=O)c1ccccc1
83 | 245 to 250 °C | CCOC(=O)Cc1c[nH]c2cc(-c3ccccc3)nn2c1=O
84 | 169 to 171 °C | Cc1ccccc1-c1ccc(C(=O)N2Cc3ccc(C(=O)NCCc4ccc(Cl)cc4)n3Cc3ccccc32)cc1C
85 | 159 to 161 °C | CC1=NC(C)(C)SC1=NO
86 | 101 to 107 °C | CCCCCCCCCCCCc1cc(NC(=O)Nc2c(C(C)C)cccc2C(C)C)no1
87 | 184 to 186 °C | COc1cc(C(C)C)c2c(c1)S(=O)(=O)N(COc1cc(=O)n3c(n1)CCCC3)C2=O
88 | 136 to 137 °C | CCCc1c(OCCCOc2ccc(C(=O)O)cc2Br)ccc(C(C)=O)c1OC(=O)CC
89 | 283 to 284 °C | COc1cccc2c1C(=O)c1c(OC)cc(-c3nc4ccccc4n3C)cc1C2=O
90 | 154 to 156 °C | COc1ccc2nc3c(nc2c1)SC(C#N)=C(C#N)S3
91 | 195 °C | CCOc1cc2c(cc1OC(C)=O)C(=O)CC1C2CCC2(C)C(OC(C)=O)CCC12 (stereo not given)
92 | 168 to 169 °C | CNC(=O)c1ccc(-c2cnc3oc(=O)n(Cc4cccc(OC)c4)c3n2)cc1
93 | 66 to 68 °C | CC(=O)N(C)c1cccc(Sc2ccc([N+](=O)[O-])cc2)c1
94 | 110 to 112 °C | O=[N+]([O-])c1c(Br)nn(Cc2ccccc2)c1NCCO
95 | 188 to 190 °C | CS(=O)(=O)c1ccc(-c2cnn(Cc3ccccc3)c(=O)c2Oc2ccc(F)cc2)cc1
96 | 158 to 159 °C | CC(C)(C)OC(=O)[C@@H](N)Cc1ccc(O)c(I)c1
97 | 77 to 82 °C | CCCCCCCCS(=O)(=O)ON=C(C#N)c1cccs1
98 | 120 to 122 °C | O=C(CCl)c1ccc2c(c1)CN(C(=O)C(F)(F)F)CC2
99 | 154 to 156 °C | CC(C)(C)OC(=O)NC1CCCCCC=CC2CC2(C(=O)NS(=O)(=O)C2CC2)NC(=O)C2CC(OC(=O)c3ccc(CC(=O)O)cc3)CN2C1=O (stereo not given)
100 | 202 to 205 °C | O=C(O)CCC1(C(=O)O)NCC(=O)N1 (stereo not given)
